Assay results: patent US20260216196A1, “IMIDAZO[1,2-A]PYRIDINE AND IMIDAZO[1,2-A]PYRAZINE DERIVATIVES AS MLLT1 AND MLLT3 INHIBITORS” (DARK BLUE THERAPEUTICS LTD., priority 2022, published 2026)
Where two headings read alike, the source gives them in different places.

Tests used:
MLLT3 = MLLT3 (Homo sapiens, UniProt P42568); test: HTRF IC50 determination assay, MLLT3 / H3K9cro peptide displacement
MLLT1 [1] = biological target: T1, MLLT1 (Homo sapiens, UniProt Q03111); conditions: read-out: MLLT1 assay IC50; HTRF, 6His tagged MLLT1, biotinylated H3K9cro peptide; compound 20 μM to 20 nM, 11 data points in duplicate
T1 sequence (Q03111 whole entry): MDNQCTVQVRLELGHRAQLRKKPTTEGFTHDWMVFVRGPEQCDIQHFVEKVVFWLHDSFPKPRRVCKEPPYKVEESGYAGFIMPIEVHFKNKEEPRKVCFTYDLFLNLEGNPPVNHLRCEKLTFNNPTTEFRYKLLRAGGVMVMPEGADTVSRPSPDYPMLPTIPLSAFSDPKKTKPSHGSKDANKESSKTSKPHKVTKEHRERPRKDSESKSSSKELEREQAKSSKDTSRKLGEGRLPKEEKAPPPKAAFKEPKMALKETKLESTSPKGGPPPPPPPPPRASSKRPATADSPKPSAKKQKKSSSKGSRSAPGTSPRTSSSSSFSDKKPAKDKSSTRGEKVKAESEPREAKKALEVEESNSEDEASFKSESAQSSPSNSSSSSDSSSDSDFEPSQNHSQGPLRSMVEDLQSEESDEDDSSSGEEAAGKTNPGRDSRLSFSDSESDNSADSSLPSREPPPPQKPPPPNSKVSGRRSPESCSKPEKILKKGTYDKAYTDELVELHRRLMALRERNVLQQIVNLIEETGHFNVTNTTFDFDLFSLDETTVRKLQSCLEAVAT

MLLT1 [2] = biological target: T1, MLLT1; test: biochemical; conditions: MLLT1 assay IC50 (nM), HTRF, 6His tagged MLLT1, biotinylated H3K9cro peptide; compound 20 μM to 20 nM, 11 data points in duplicate
[3] = read-out: MLLT3 assay IC50, 6His tagged MLLT3, biotinylated H3K9cro peptide, compound 20 μM to 20 nM, 11 data points in duplicate
[4] = MLLT3 assay IC50 (nM), 6His tagged MLLT3, biotinylated H3K9cro peptide, compound 20 μM to 20 nM, 11 data points in duplicate

MLLT3, sequence (P42568 whole entry): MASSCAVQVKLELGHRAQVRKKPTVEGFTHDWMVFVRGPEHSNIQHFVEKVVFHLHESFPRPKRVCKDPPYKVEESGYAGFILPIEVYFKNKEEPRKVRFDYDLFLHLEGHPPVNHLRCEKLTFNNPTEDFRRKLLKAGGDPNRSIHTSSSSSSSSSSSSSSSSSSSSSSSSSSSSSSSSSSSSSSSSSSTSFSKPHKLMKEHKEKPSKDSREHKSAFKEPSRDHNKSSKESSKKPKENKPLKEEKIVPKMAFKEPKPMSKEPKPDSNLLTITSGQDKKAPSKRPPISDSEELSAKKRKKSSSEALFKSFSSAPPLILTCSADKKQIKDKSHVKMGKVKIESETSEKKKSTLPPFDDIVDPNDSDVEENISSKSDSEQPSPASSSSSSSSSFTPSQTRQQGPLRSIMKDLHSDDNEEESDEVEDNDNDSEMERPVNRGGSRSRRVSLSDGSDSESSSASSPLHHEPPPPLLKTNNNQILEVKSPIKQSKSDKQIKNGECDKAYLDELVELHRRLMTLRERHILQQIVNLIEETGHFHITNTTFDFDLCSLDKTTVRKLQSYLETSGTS

Row | IC50 (MLLT1 [2]) [nM] | IC50 (MLLT3; [4]) [nM] | Compound | IC50 (MLLT3; [3]) [nM] | IC50 (MLLT1 [1]) [µM]
1 | – | – | C[C@H]1C[C@H](c2cn3cc(NC(=O)c4ccc5c(cnn5C)c4)ncc3n2)N(C)C1 (relative stereo) [Example 89, N-(2-((2R, rel-4S)-1,4-dimethylpyrrolidin-2-yl)imidazo[1,2-a]pyrazin-6-yl)-1-methyl-1H-indazole-5-carboxamide] | 150 to 1500 | 0.15 to 1.5
2 | – | – | C[C@@H]1C[C@H](c2cn3cc(NC(=O)c4ccc5c(cnn5C)c4)ncc3n2)N(C)C1 (relative stereo) [Example 90, N-(2-((2R, rel-4R)-1,4-dimethylpyrrolidin-2-yl)imidazo[1,2-a]pyrazin-6-yl)-1-methyl-1H-indazole-5-carboxamide] | 150 to 1500 | < 0.15
3 | – | – | CO[C@H]1C[C@H](c2cn3cc(NC(=O)c4ccc5c(cnn5C)c4)ncc3n2)N(C)C1 (stereo in doubt) [Example 85, N-{2-[(rel-2R,4S)-4-methoxy-1-methylpyrrolidin-2-yl]imidazo[1,2-a]pyrazin-6-yl}-1-methylindazole-5-carboxamide] | 150 to 1500 | 0.15 to 1.5
4 | – | – | CO[C@H]1C[C@@H](c2cn3cc(NC(=O)c4ccc5c(cnn5C)c4)ncc3n2)N(C)C1 (stereo in doubt) [Example 86, N-{2-[(rel-2S,4S)-4-methoxy-1-methylpyrrolidin-2-yl]imidazo[1,2-a]pyrazin-6-yl}-1-methylindazole-5-carboxamide] | 1500 to 20000 | 0.15 to 1.5
5 | – | – | CO[C@@H]1C[C@H](c2cn3cc(NC(=O)c4ccc5c(cnn5C)c4)ncc3n2)N(C)C1 (stereo in doubt) [Example 103, N-{2-[(rel-2R,4R)-4-methoxy-1-methylpyrrolidin-2-yl]imidazo[1,2-a]pyrazin-6-yl}-1-methylindazole-5-carboxamide] | 150 to 1500 | 0.15 to 1.5
6 | – | – | CO[C@@H]1C[C@@H](c2cn3cc(NC(=O)c4ccc5c(cnn5C)c4)ncc3n2)N(C)C1 (stereo in doubt) [Example 104, N-{2-[(rel-2S,4R)-4-methoxy-1-methylpyrrolidin-2-yl]imidazo[1,2-a]pyrazin-6-yl}-1-methylindazole-5-carboxamide] | 1500 to 20000 | 0.15 to 1.5
7 | 150 to 1500 | 150 to 1500 | Cc1nc(NC(=O)c2cc3cnc(C)n3cc2F)cn2cc([C@H]3CCCN3C)nc12 [Example 93, 6-fluoro-3-methyl-N-{8-methyl-2-[(2R)-1-methylpyrrolidin-2-yl]imidazo[1,2-a]pyrazin-6-yl}imidazo[1,5-a]pyridine-7-carboxamide] | – | –
8 | 150 to 1500 | 150 to 1500 | Cc1nc(NC(=O)c2cc3c(C)nc(C)n3cc2F)cn2cc([C@H]3CCCN3C)nc12 [Example 94, 6-fluoro-1,3-dimethyl-N-{8-methyl-2-[(2R)-1-methylpyrrolidin-2-yl]imidazo[1,2-a]pyrazin-6-yl}imidazo[1,5-a]pyridine-7-carboxamide] | – | –
9 | 1500 to 20000 | 1500 to 20000 | CN1CCC[C@@H]1c1cn2cc(NC(=O)c3cc4cnn(C)c4cn3)ncc2n1 [Example 95, 1-methyl-N-{2-[(2R)-1-methylpyrrolidin-2-yl]imidazo[1,2-a]pyrazin-6-yl}pyrazolo[3,4-c]pyridine-5-carboxamide] | – | –
10 | 150 to 1500 | 1500 to 20000 | COc1cc2c(cnn2C)cc1C(=O)Nc1cn2cc([C@H]3CCCN3C)nc2cn1 [Example 96, 6-methoxy-1-methyl-N-{2-[(2R)-1-methylpyrrolidin-2-yl]imidazo[1,2-a]pyrazin-6-yl}indazole-5-carboxamide] | – | –
11 | 150 to 1500 | 150 to 1500 | CN1CCC[C@@H]1c1cn2cc(NC(=O)c3ccc4nnn(C)c4c3)ncc2n1 [Example 97, 3-methyl-N-{2-[(2R)-1-methylpyrrolidin-2-yl]imidazo[1,2-a]pyrazin-6-yl}-1,2,3-benzotriazole-5-carboxamide] | – | –
12 | 150 to 1500 | 150 to 1500 | CN1CCC[C@@H]1c1cn2cc(NC(=O)c3ccc4c(N5CCCCC5)nn(C)c4c3)ncc2n1 [Example 98, 1-methyl-N-{2-[(2R)-1-methylpyrrolidin-2-yl]imidazo[1,2-a]pyrazin-6-yl}-3-(piperidin-1-yl)indazole-6-carboxamide] | – | –
13 | 150 to 1500 | 1500 to 20000 | CN1CCC[C@@H]1c1cn2cc(NC(=O)c3ccc4c(cnn4C)c3)nc(C3CC3)c2n1 [Example 99, N-[8-cyclopropyl-2-[(2R)-1-methylpyrrolidin-2-yl]imidazo[1,2-a]pyrazin-6-yl]-1-methyl-indazole-5-carboxamide] | – | –
14 | 150 to 1500 | 150 to 1500 | Cc1nn(C)c2cc(C(=O)Nc3cn4cc([C@H]5CCCN5C)nc4c(C4CC4)n3)c(F)cc12 [Example 100, N-[8-cyclopropyl-2-[(2R)-1-methylpyrrolidin-2-yl]imidazo[1,2-a]pyrazin-6-yl]-5-fluoro-1,3-dimethyl-indazole-6-carboxamide] | – | –
15 | < 150 | 150 to 1500 | CN1CCC[C@@H]1c1cn2cc(NC(=O)c3cc4cnn(C)c4cc3F)ncc2n1 [Example 101, 6-fluoro-1-methyl-N-[2-[(2R)-1-methylpyrrolidin-2-yl]imidazo[1,2-a]pyrazin-6-yl]indazole-5-carboxamide] | – | –
16 | < 150 | 150 to 1500 | CN1CC2(CC2)C[C@@H]1c1cn2cc(NC(=O)c3ccc4c(cnn4C)c3)ncc2n1 [Example 102, 1-methyl-N-[2-[(6R)-5-methyl-5-azaspiro[2.4]heptan-6-yl]imidazo[1,2-a]pyrazin-6-yl]indazole-5-carboxamide] | – | –
17 | 150 to 1500 | 150 to 1500 | CN1C[C@H](F)C[C@@H]1c1cn2cc(NC(=O)c3ccc4c(cnn4C)c3)ncc2n1 [Example 105, N-(2-((2R,4R)-4-fluoro-1-methylpyrrolidin-2-yl)imidazo[1,2-a]pyrazin-6-yl)-1-methyl-1H-indazole-5-carboxamide] | – | –
